Experimental data taken from patent publication US11266655B2, “Methods and compositions for treating urea cycle disorders” (Camp4 Therapeutics Corporation, priority 2019, dated 2022).

Legend:
[1] = system: OTC; test: siRNA SMARTpool transfection of primary human hepatocytes, OTC qPCR (Table 3B); type: cell-based; settings: siRNA 10 nM, 48 hrs, vs non-targeting siRNA
Protocol: Primary human hepatocytes were reversed transfected with 6 pmol siRNA using RNAiMAX Reagent (ThermoFisher Cat No13778030) in 24 well format, 1 ul per well (for a final cone of 10 nM). The following morning, the medium was removed and replaced with Modified Maintenance Medium (see above) for an additional 24 hrs. The entire treatment lasted 48 hrs, at which point the medium was removed and replaced with RLT Buffer for RNA extraction (Qiagen RNeasy 96 QIAcube HT Kit Cat #74171). siRNAs were obtained from Dharmacon and are a pool of four siRNA duplex all designed to target distinct sites within the specific gene of interest (known as “SMARTpool”). They were tested against the control non-targeting siRNA D-001206-13-05.
Isolated RNA was processed for cDNA synthesis and qPCR as described above. Taqman assay used for OTC measurement: Hs00166892_ml

[2] = system: CPS1; test: RNA-seq of compound-treated primary human hepatocytes, CPS1 expression; type: cell-based
[3] = system: OTC; test: RNA-seq of compound-treated primary human hepatocytes, OTC expression; type: cell-based; settings: for Relative OTC level vs Untreated (±Standard Deviation): primary human hepatocytes, triplicate (Table 14)
[4] = system: ASS1; test: RNA-seq of compound-treated primary human hepatocytes, ASS1 expression; type: cell-based; settings: for Relative ASS1 level vs Untreated (±Standard Deviation): primary human hepatocytes
[5] = system: ASL; test: RNA-seq of compound-treated primary human hepatocytes, ASL expression; type: cell-based; settings: for Relative ASL level vs Untreated (±Standard Deviation): triplicate (Table 25, FIG. 17)
[6] = system: ARG1; test: RNA-seq of compound-treated primary human hepatocytes, ARG1 expression; type: cell-based
[7] = system: SLC25A15; test: RNA-seq of compound-treated primary human hepatocytes, SLC25A15 expression; type: cell-based; settings: for Relative SLC25A15 level vs Untreated (±Standard Deviation): primary human hepatocytes, triplicate (Table 24, FIG. 16A-B)
[8] = system: urea cycle genes; test: RNA-seq of primary human hepatocytes, compounds that modulate multiple urea cycle-related genes; type: cell-based; settings: primary human hepatocytes, RNA-seq
[9] = system: OTC; test: JAK inhibitors at 0.3 and 3 μM in primary human hepatocytes, OTC mRNA fold change; type: cell-based; settings: fold change vs DMSO
Protocol: (§1) Additional small molecules that inhibit JAK1, JAK2, JAK3, or a combination of the JAK proteins were tested in primary human hepatocytes as described in Example 2. JAK inhibitors were tested in triplicate at 0.3 μM and 3 μM. The results are shown as the fold change (mRNA FC) in the mRNA levels of OTC and CPS1 genes after treatment compared to an untreated control (DMSO) and the standard deviation (SD).

[10] = system: CPS1; test: JAK inhibitors at 0.3 and 3 μM in primary human hepatocytes, CPS1 mRNA fold change; type: cell-based; settings: fold change vs DMSO
Protocol: as §1

[11] = system: OTC; test: JAK1 inhibitor dose titration in hepatocytes of donors A and B, OTC mRNA normalized to B2M; type: cell-based, human; settings: for OTC mRNA FC, Donor A / OTC mRNA FC, Donor B: normalized to B2M
Protocol: (§2) Next, two JAK1 inhibitors were tested at increasing concentrations in a dose titration assy. Hepatocytes from two different donors (A and B) were incubated with the various concentrations of upadacitinib or oclacitinib maleate and harvested for mRNA analysis. OTC and CPS1 mRNA were normalized to house keeping gene B2M gene expression.

[12] = system: CPS1; test: JAK1 inhibitor dose titration in hepatocytes of donors A and B, CPS1 mRNA normalized to B2M; type: cell-based, human; settings: for CPS1 mRNA FC, Donor A / CPS1 mRNA FC, Donor B: normalized to B2M
Protocol: as §2

[13] = system: chromatin domain upstream of the OTC gene; test: ATAC-seq of the OTC insulated neighborhood in inhibitor-treated hepatocytes; settings: 17 hours of inhibitor treatment
Protocol: Hepatocytes were seeded overnight, then the serum and other factors were removed. After 2-3 hours, the cells were treated with the compound and incubated overnight. The cells were harvested and the nuclei were prepared for the transposition reaction. […] After 9-12 cycles of PCR amplification, libraries were sequenced on an Illumina HiSeq 2000. PCR was performed using barcoded primers with extension at 72° C. for 5 minutes, PCR, then the final PCR product was sequenced.
All obtained reads from each sample were trimmed using trim galore 0.4.1 requiring Phred score ≥20 and read length ≥30 for data analysis. The trimmed reads were mapped against the human genome (hg19 build) using Bowtie2 (version 2.2.9) with the parameters: -t -q -N 1 -L 25 -X 2000 no-mixed no-discordant. All unmapped reads, non-uniquely mapped reads and PCR duplicates were removed. All the ATAC-seq peaks were called using MACS2 with the parameters --nolambda -nomodel -q 0.01 --SPMR. The ATAC-seq signal was visualized in the UCSC genome browser. ATAC-seq peaks that were at least 2 kb away from annotated promoters (RefSeq, Ensemble and UCSC Known Gene databases combined) were selected as distal ATAC-seq peaks.
The ATAC-seq experiment was done in triplicate.

[14] = system: OTC; test: siRNA knockdown of JAK/STAT/IRF genes in hepatocytes, OTC mRNA; type: cell-based, human; settings: 10 nM siRNA plus 0.03 nM JAK1 siRNA, FIG. 27C
Excerpt: To confirm that JAK1 inhibition is necessary for OTC and CPS1 gene expression increase, JAK1, JAK2, and JAK3 expression was knocked down using the siRNA methods previously described in Example 1 (JAK1 siRNA Dharmacon #M-003145-02-0005; JAK2 siRNA Dharmacon #M-003146-02-0005; JAK3 siRNA Dharmacon #M-003147-01-0005). The cells were harvest for mRNA collection and quantification as previously described.
In addition, STAT5B is a JAK1 signal transducer and transcription factor activated by JAK1. STAT5B was knocked down in hepatocytes using siRNA (Dharmacon cat #M-010539-02-0005) as previously described in Example 1. The cells were harvest for mRNA collection and quantification as previously described.
To confirm the role of JAK1 and investigate the role of other signaling proteins and transcription factors in OTC and CPS1 expression, a panel of additional genes were knocked down with siRNA alone or in combination with JAK1. In particular, JAK2 was knockdown alone or in combination with JAK1. The combinations are shown in FIG. 26A and FIG. 26B. siRNA used to knock down JAK1 and JAK2 were: JAK1 siRNA Dharmacon #M-003145-02-0005; JAK2 siRNA Dharmacon #M-003146-02-0005. OTC and CPS1 mRNA expression was normalized to B2M. The assay was performed in triplicate in three donor hepatocyte cell lines: 371, 171, and 511A.
Cells were harvested after siRNA treatment for mRNA quantification. JAK1, OTC, and CPS1 mRNA levels were normalized to GUSB.

[15] = Example 11, relative mRNA vs DMSO
[16] = primary human hepatocytes, RNA-seq
[17] = both donor cell lines (A and B)

Molecule: SMAD3 (DNA YGTCTAGACA; siRNA; chemistry not given here; the letters are possibly those of the target site)
- Max fold change in OTC [1]: 2.49 fold

Molecule: Cc1cc(-c2nc(-c3ccc(OC(F)(F)F)cc3)no2)nn1Cc1ccnc(N2CCN(C3CC3)CC2)c1 [BAY 87-2243]
- Relative CPS1 level vs Untreated (±Standard Deviation) ([2]; 0.3 uM, primary human hepatocytes, triplicate (Table 20, FIG. 12)): 3.32 ± 0.53
- Relative CPS1 level vs Untreated (±Standard Deviation) ([2]; 1 uM, primary human hepatocytes, triplicate (Table 20, FIG. 12)): 5.11 ± 1.08
- Relative CPS1 level vs Untreated (±Standard Deviation) ([2]; 3 μM, primary human hepatocytes, triplicate (Table 19, FIG. 11)): 1.41 ± 0.06
- Relative CPS1 level vs Untreated (±Standard Deviation) ([2]; 3 uM, primary human hepatocytes, triplicate (Table 20, FIG. 12)): 5.48 ± 3.12
- Relative CPS1 level vs Untreated (±Standard Deviation) ([2]; 10 uM, primary human hepatocytes, triplicate (Table 20, FIG. 12)): 5.69 ± 2.90
- increase in CPS1 gene expression (Tables 19, 20, FIG. 11, 12) [2, 15]: greatest increase
- CPS1 expression, Fold change (Log 2) vs untreated [2, 16]: 1.81 Log 2
- Relative OTC level vs Untreated (±Standard Deviation) ([3]; 0.3 uM): 3.33 ± 0.60
- Relative OTC level vs Untreated (±Standard Deviation) ([3]; 1 uM): 5.61 ± 3.28
- Relative OTC level vs Untreated (±Standard Deviation) ([3]; 3 uM): 7.03 ± 3.84
- Relative OTC level vs Untreated (±Standard Deviation) ([3]; 10 uM): 6.18 ± 1.58
- increase in OTC gene expression (Table 14, FIG. 6) [3, 15]: greatest increase
- Relative ASS1 level vs Untreated (±Standard Deviation) ([4]; 0.3 μM, triplicate (Table 15, FIG. 7)): 2.79 ± 0.22
- Relative ASS1 level vs Untreated (±Standard Deviation) ([4]; 0.3 uM, triplicate (Table 15, FIG. 8)): 2.11 ± 0.33
- Relative ASS1 level vs Untreated (±Standard Deviation) ([4]; 1 μM, triplicate (Table 15, FIG. 7)): 3.10 ± 0.47
- Relative ASS1 level vs Untreated (±Standard Deviation) ([4]; 01 uM, triplicate (Table 15, FIG. 8)): 2.61 ± 0.57
- Relative ASS1 level vs Untreated (±Standard Deviation) ([4]; 3 μM, triplicate (Table 15, FIG. 7)): 2.38 ± 0.01
- Relative ASS1 level vs Untreated (±Standard Deviation) ([4]; 03 uM, triplicate (Table 15, FIG. 8)): 2.87 ± 1.80
- Relative ASS1 level vs Untreated (±Standard Deviation) ([4]; 10 μM, triplicate (Table 15, FIG. 7)): 2.99 ± 0.36
- Relative ASS1 level vs Untreated (±Standard Deviation) ([4]; 10 uM, triplicate (Table 15, FIG. 8)): 2.86 ± 1.48
- increase in ASS1 gene expression (Tables 15, 16, FIG. 7, 8) [4, 15]: greatest increase
- Relative ASL level vs Untreated (±Standard Deviation) ([5]; 0.3 uM, primary human hepatocytes): 3.02 ± 0.25
- Relative ASL level vs Untreated (±Standard Deviation) ([5]; 1 uM, primary human hepatocytes): 7.50 ± 1.10
- Relative ASL level vs Untreated (±Standard Deviation) ([5]; 3 uM, primary human hepatocytes): 11.42 ± 6.31
- Relative ASL level vs Untreated (±Standard Deviation) ([5]; 10 uM, primary human hepatocytes): 12.28 ± 4.98
- increase in ASL gene expression (Table 25, FIG. 17) [5, 15]: greatest increase
- ASL expression, Fold change (Log 2) vs untreated [5, 16]: 0.58 Log 2
- Relative ARGI level vs Untreated (±Standard Deviation) ([6]; 0.3 μM, primary human hepatocytes, triplicate (Table 17, FIG. 9)): 1.36 ± 0.43
- Relative ARGI level vs Untreated (±Standard Deviation) ([6]; 1 μM, primary human hepatocytes, triplicate (Table 17, FIG. 9)): 1.98 ± 0.29
- Relative ARGI level vs Untreated (±Standard Deviation) ([6]; 3 μM, primary human hepatocytes, triplicate (Table 17, FIG. 9)): 2.06 ± 0.19
- Relative ARGI level vs Untreated (±Standard Deviation) ([6]; 10 μM, primary human hepatocytes, triplicate (Table 17, FIG. 9)): 2.03 ± 0.28
- Relative ARGI level vs Untreated (±Standard Deviation) ([6]; 10 uM, primary human hepatocytes, triplicate (Table 18, FIG. 10)): 5.64 ± 3.44
- increase in ARG1 gene expression (Tables 17, 18, FIG. 9, 10) [6, 15]: greatest increase
- Fold change (Log 2) vs untreated, ARG1 expression ([6]; primary human hepatocytes, RNA-seq (Table 7)): 1.09 Log 2
- Relative SLC25A15 level vs Untreated (±Standard Deviation) ([7]; 0.3 μM): 2.85 ± 0.23
- Relative SLC25A15 level vs Untreated (±Standard Deviation) ([7]; 1 μM): 2.40 ± 0.22
- Relative SLC25A15 level vs Untreated (±Standard Deviation) ([7]; 3 μM): 2.89 ± 0.37
- Relative SLC25A15 level vs Untreated (±Standard Deviation) ([7]; 10 μM): 2.70 ± 0.19
- Increase in SLC25A15 gene expression (qualitative) [7, 15]: greatest increase
- number of urea cycle genes whose expression was significantly up-regulated [8]: three
- Up-regulated Genes ([8]; urea cycle-related genes significantly increased (Table 10)): CPS1, ASL, ARG1

Molecule: oclacitinib maleate
- OTC mRNA FC ([9]; 0.3 uM): 1.32
- OTC mRNA FC ([9]; 3 uM): 3.14
- CPS1 mRNA FC ([10]; 0.3 uM): 1
- CPS1 mRNA FC ([10]; 3 uM): 1.69
- OTC mRNA FC, Donor A ([11]; 0.1 uM): 1.97
- OTC mRNA FC, Donor B ([11]; 0.1 uM): 2.46
- OTC mRNA FC, Donor A ([11]; 0.3 uM): 2.76
- OTC mRNA FC, Donor B ([11]; 0.3 uM): 4.28
- OTC mRNA FC, Donor A ([11]; 1 uM): 4.79
- OTC mRNA FC, Donor B ([11]; 1 uM): 5.97
- OTC mRNA FC, Donor A ([11]; 3 uM): 8.92
- OTC mRNA FC, Donor B ([11]; 3 uM): 11.00
- OTC mRNA FC, Donor A ([11]; 10 uM): 11.65
- OTC mRNA FC, Donor B ([11]; 10 uM): 11.46
- OTC mRNA expression, dose titration [11, 17]: dose dependent increase
- CPS1 mRNA FC, Donor A ([12]; 0.1 uM): 1.61
- CPS1 mRNA FC, Donor B ([12]; 0.1 uM): 4.60
- CPS1 mRNA FC, Donor A ([12]; 0.3 uM): 2.37
- CPS1 mRNA FC, Donor B ([12]; 0.3 uM): 4.50
- CPS1 mRNA FC, Donor A ([12]; 1 uM): 3.12
- CPS1 mRNA FC, Donor B ([12]; 1 uM): 3.34
- CPS1 mRNA FC, Donor A ([12]; 3 uM): 4.82
- CPS1 mRNA FC, Donor B ([12]; 3 uM): 2.57
- CPS1 mRNA FC, Donor A ([12]; 10 uM): 5.99
- CPS1 mRNA FC, Donor B ([12]; 10 uM): 1.90
- CPS1 mRNA expression, dose titration [12, 17]: dose dependent increase
- newly accessible chromatin domain upstream of the OTC gene (ATAC-seq) [13]: newly accessible chromatin domain

Molecule: STAT1 (DNA NATTTCCNGGAAAT; target site or template, no part of the molecule; chemistry not given here)
- OTC expression after knockdown in combination with JAK1 [14]: increased
